Results as given in patent publication US20250382305A1 (PTC THERAPEUTICS, INC., priority 2022, published 2025).

Assays:
[1] = tested on: Total ATXN3 (tATXN3) protein; assay: Endogenous Total ATXN3 (tATXN3) Protein Assay (MSD immunoassay of cell lysates); format: cell-based; conditions: average IC50, total ATXN3 protein in cell lysate after 48 h with compound (Table 1)
How it was run: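 By electrochemiluminescent MSD sandwich immunoassay (mouse monoclonal capture, rabbit monoclonal and SULFO-TAG anti-rabbit detection), endogenous ATXN3 was quantified in lysates of cells treated 48 h at 37° C at 10,000 cells/well. Treatment used a 7-point 3.16-fold duplicate dilution series, with average IC50 grouped into star categories.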

[2] = tested on: ATXN3 pre-mRNA; assay: RT-qPCR Assay to Quantify Exon 4 Skipping in ATXN3 pre-mRNA in Cells; format: cell-based; conditions: percent exon 4 skipping in ATXN3 pre-mRNA, RT-qPCR of cell lysates; average IC50
How it was run: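 IC50 derives from a dose-response fit of percent exon 4 skipping, quantified by RT-qPCR on crude lysates. Compounds tested as 7-point 3.16-fold dilutions in duplicate; cells (10,000/well) were exposed for 24 h at 37 °C before lysis.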

Compound	IC50 [1]	IC50 [2]
Cc1c([C@H]2CCCCC[C@@H]2N)sc2c(NCc3cccs3)cc(Cl)nc12 [Compound 81, 2-((1S,2S)-2-aminocycloheptyl)-5-chloro-3-methyl-N-(thiophen-2-ylmethyl)thieno[3,2-b]pyridin-7-amine]	30 to 300 nM	30 to 300 nM
[2H]C1=C([2H])C([2H])([2H])[C@H](c2sc3c(NCc4cccs4)cc(Cl)nc3c2C)[C@@H](N)C1([2H])[2H] [Compound 205, 2-((1S,6S)-6-aminocyclohex-3-en-1-yl-2,2,3,4,5,5-d6)-5-chloro-3-methyl-N-(thiophen-2-ylmethyl)thieno[3,2-b]pyridin-7-amine]	≤ 30 nM	≤ 30 nM
N[C@H]1CC=CC[C@@H]1c1sc2c(NCc3ccco3)nc(Cl)nc2c1Cl [Compound 170, 6-((1S,6S)-6-aminocyclohex-3-en-1-yl)-2,7-dichloro-N-(furan-2-ylmethyl)thieno[3,2-d]pyrimidin-4-amine]	≤ 30 nM	< 30 nM
N[C@@H]1CCOC[C@H]1c1sc2c(NCc3ccccc3)cc(Cl)nc2c1Cl [Compound 406, 2-((3S,4R)-4-aminotetrahydro-2H-pyran-3-yl)-N-benzyl-3,5-dichlorothieno[3,2-b]pyridin-7-amine]	30 to 300 nM	≤ 30 nM
Cc1c([C@@H]2CC=CC[C@H]2N)sc2c(NCc3ccncc3)nc(Cl)nc12 [Compound 436, 6-((1R,6R)-6-aminocyclohex-3-en-1-yl)-2-chloro-7-methyl-N-(pyridin-4-ylmethyl)thieno[3,2-d]pyrimidin-4-amine]	> 1000 nM	300 to 1000 nM
N[C@H]1CCCO[C@@H]1c1c(Cl)c2nc(Cl)nc(NCc3cccs3)c2n1C(F)F [Compound 305, 6-((2S,3S)-3-aminotetrahydro-2H-pyran-2-yl)-2,7-dichloro-5-(difluoromethyl)-N-(thiophen-2-ylmethyl)-5H-pyrrolo[3,2-d]pyrimidin-4-amine]	30 to 300 nM	30 to 300 nM
N[C@H]1CCCC[C@H]1c1sc2c(NCc3cccs3)cc(Cl)nc2c1Br [Compound 53, 2-((1R,2S)-2-aminocyclohexyl)-3-bromo-5-chloro-N-(thiophen-2-ylmethyl)thieno[3,2-b]pyridin-7-amine]	300 to 1000 nM	300 to 1000 nM
N[C@H]1CC=CC[C@@H]1c1sc2c(NCc3ccccc3)cc(Cl)nc2c1Br [Compound 194, 2-((1S,6S)-6-aminocyclohex-3-en-1-yl)-N-benzyl-3-bromo-5-chlorothieno[3,2-b]pyridin-7-amine]	≤ 30 nM	≤ 30 nM
N[C@H]1CCOC[C@@H]1c1sc2c(NCc3ccco3)cc(Cl)nc2c1Cl [Compound 174, 2-((3R,4S)-4-aminotetrahydro-2H-pyran-3-yl)-3,5-dichloro-N-(furan-2-ylmethyl)thieno[3,2-b]pyridin-7-amine]	≤ 30 nM	≤ 30 nM
Cc1c([C@@H]2CCCCCC[C@@H]2N)sc2c(NCc3cccs3)cc(Cl)nc12 [Compound 95, 2-((1R,2S)-2-aminocyclooctyl)-5-chloro-3-methyl-N-(thiophen-2-ylmethyl)thieno[3,2-b]pyridin-7-amine]	> 1000 nM	> 1000 nM
N[C@H]1CCCCCC[C@H]1c1sc2c(NCc3cccs3)cc(Cl)nc2c1Br [Compound 102, 2-((1R,2S)-2-aminocyclooctyl)-3-bromo-5-chloro-N-(thiophen-2-ylmethyl)thieno[3,2-b]pyridin-7-amine]	> 1000 nM	> 1000 nM
N[C@@H]1CCC[C@H]1c1sc2c(NCc3ccccc3)cc(Cl)nc2c1Br [Compound 161, 2-((1R,2R)-2-aminocyclopentyl)-N-benzyl-3-bromo-5-chlorothieno[3,2-b]pyridin-7-amine]	> 1000 nM	> 1000 nM
2-((1R,6R)-6-aminocyclohex-3-en-1-yl-2,2,3,4,5,5-d6)-N-benzyl-5-chloro-3-methylthieno[3,2-b]pyridin-7-amine and 2-((1S,6S)-6-aminocyclohex-3-en-1-yl-2,2,3,4,5,5-d6)-N-benzyl-5-chloro-3-methylthieno[3,2-b]pyridin-7-amine [Compound 278]	30 to 300 nM	30 to 300 nM
N[C@H]1CC=CC[C@@H]1c1sc2c(NCc3ncco3)cc(Cl)nc2c1Cl [Compound 199, 2-((1S,6S)-6-aminocyclohex-3-en-1-yl)-3,5-dichloro-N-(oxazol-2-ylmethyl)thieno[3,2-b]pyridin-7-amine]	≤ 30 nM	≤ 30 nM
2-(3-aminotetrahydro-2H-pyran-2-yl)-N-benzyl-3-bromo-5-chlorothieno[3,2-b]pyridin-7-amine [Compound 27]	30 to 300 nM	≤ 30 nM
N[C@H]1CCCC[C@H]1c1sc2c(NCc3cccs3)cc(Cl)nc2c1Cl [Compound 13, 2-((1R,2S)-2-aminocyclohexyl)-3,5-dichloro-N-(thiophen-2-ylmethyl)thieno[3,2-b]pyridin-7-amine]	30 to 300 nM	30 to 300 nM

Compound	IC50 [1]	IC50 [2]
N[C@H]1CC=CC[C@@H]1c1sc2c(NCc3ccco3)nc(Cl)nc2c1Br [Compound 168, 6-((1S,6S)-6-aminocyclohex-3-en-1-yl)-7-bromo-2-chloro-N-(furan-2-ylmethyl)thieno[3,2-d]pyrimidin-4-amine]	≤ 30 nM	≤ 30 nM
N[C@H]1CCCC[C@]1(O)c1sc2c(NCc3cccs3)cc(Cl)nc2c1Cl [Compound 31, (1R,2S)-2-amino-1-(3,5-dichloro-7-((thiophen-2-ylmethyl)amino)thieno[3,2-b]pyridin-2-yl)cyclohexan-1-ol]	> 1000 nM	> 1000 nM
2-((1R,6R)-6-aminocyclohex-3-en-1-yl-2,2,3,4,5,5-d6)-5-chloro-N-(furan-2-ylmethyl)-3-methylthieno[3,2-b]pyridin-7-amine and 2-((1S,6S)-6-aminocyclohex-3-en-1-yl-2,2,3,4,5,5-d6)-5-chloro-N-(furan-2-ylmethyl)-3-methylthieno[3,2-b]pyridin-7-amine [Compound 171]	≤ 30 nM	≤ 30 nM
N[C@H]1CCC[C@H]1c1cc2nc(Cl)cc(NCc3cccs3)c2s1 [Compound 111, 2-((1R,2S)-2-aminocyclopentyl)-5-chloro-N-(thiophen-2-ylmethyl)thieno[3,2-b]pyridin-7-amine]	> 1000 nM	300 to 1000 nM
6-((2S,3S)-3-aminotetrahydro-2H-pyran-2-yl)-7-bromo-2-chloro-5-(difluoromethyl)-N-(furan-2-ylmethyl)-5H-pyrrolo[3,2-d]pyrimidin-4-amine [Compound 215]	≤ 30 nM	≤ 30 nM
CN[C@H]1CC=CC[C@@H]1c1sc2c(NCc3cccs3)cc(Cl)nc2c1C#CCCO [Compound 303, 4-(5-chloro-2-((1S,6S)-6-(methylamino)cyclohex-3-en-1-yl)-7-((thiophen-2-ylmethyl)amino)thieno[3,2-b]pyridin-3-yl)but-3-yn-1-ol]	30 to 300 nM	30 to 300 nM
N[C@@H]1CCCCCC[C@H]1c1sc2c(NCc3cccs3)cc(Cl)nc2c1I [Compound 123, 2-((1R,2R)-2-aminocyclooctyl)-5-chloro-3-iodo-N-(thiophen-2-ylmethyl)thieno[3,2-b]pyridin-7-amine]	> 1000 nM	> 1000 nM
CC#CCNc1cc(Cl)nc2c(Br)c([C@@H]3CC(C)=C(C)C[C@H]3N)sc12 [Compound 438, 2-((1R,6R)-6-amino-3,4-dimethylcyclohex-3-en-1-yl)-3-bromo-N-(but-2-yn-1-yl)-5-chlorothieno[3,2-b]pyridin-7-amine]	300 to 1000 nM	30 to 300 nM
N[C@@H]1CCC[C@@H]1c1sc2c(NCc3cccs3)cc(Cl)nc2c1Cl [Compound 3, 2-((1S,2R)-2-aminocyclopentyl)-3,5-dichloro-N-(thiophen-2-ylmethyl)thieno[3,2-b]pyridin-7-amine]	> 1000 nM	> 1000 nM
N[C@H]1CC=CC[C@@H]1c1sc2c(NCc3ccccc3)nc(Cl)nc2c1Br [Compound 241, 6-((1S,6S)-6-aminocyclohex-3-en-1-yl)-N-benzyl-7-bromo-2-chlorothieno[3,2-d]pyrimidin-4-amine]	≤ 30 nM	≤ 30 nM
N[C@@H]1CCCC[C@H]1c1sc2c(NCc3ccccc3)cc(Cl)nc2c1Cl [Compound 368, 2-((1R,2R)-2-aminocyclohexyl)-N-benzyl-3,5-dichlorothieno[3,2-b]pyridin-7-amine]	30 to 300 nM	30 to 300 nM
2-((3R,4S)-3-aminotetrahydro-2H-pyran-4-yl)-5-chloro-3-(prop-1-yn-1-yl)-N-(thiophen-2-ylmethyl)thieno[3,2-b]pyridin-7-amine and 2-((3S,4R)-3-aminotetrahydro-2H-pyran-4-yl)-5-chloro-3-(prop-1-yn-1-yl)-N-(thiophen-2-ylmethyl)thieno[3,2-b]pyridin-7-amine [Compound 227]	≤ 30 nM	≤ 30 nM
N[C@H]1CC=CC[C@@H]1c1sc2c(NCc3ccncc3)nc(Cl)nc2c1Cl [Compound 214, 6-((1S,6S)-6-aminocyclohex-3-en-1-yl)-2,7-dichloro-N-(pyridin-4-ylmethyl)thieno[3,2-d]pyrimidin-4-amine]	≤ 30 nM	≤ 30 nM
N[C@@H]1CC=CC[C@H]1c1sc2c(NCc3ccccc3)cc(Cl)nc2c1Br [Compound 403, 2-((1R,6R)-6-aminocyclohex-3-en-1-yl)-N-benzyl-3-bromo-5-chlorothieno[3,2-b]pyridin-7-amine]	300 to 1000 nM	30 to 300 nM
N[C@H]1CC=CC[C@@H]1c1sc2c(NCc3cccs3)cc(Cl)nc2c1C#CCCCCO [Compound 235, 6-(2-((1S,6S)-6-aminocyclohex-3-en-1-yl)-5-chloro-7-((thiophen-2-ylmethyl)amino)thieno[3,2-b]pyridin-3-yl)hex-5-yn-1-ol]	≤ 30 nM	≤ 30 nM
